Reference: US9359409B2, “Antimicrobial peptides, compositions comprising the same and uses thereof” (priority 2012, dated 2016)
Peptide text beside a SMILES is read from it.

Key:
Escherichia coli = test system: Escherichia coli
Protocol: (§1) The 5 designed and synthesized peptides of the invention, plus omiganan (peptide of the state of the art) were evaluated for their antimicrobial capacity in microdilution assays for determining the minimum inhibitory concentration (MIC). A first panel of 8 representative strains was analyzed in these assays, encompassing Gram positive and Gram negative bacteria. […] The lowest MIC values indicate a higher antimicrobial potency.
(§2) Subsequently, an analysis of a panel of clinical isolates including strains with different resistance mechanisms against conventional antibiotics was carried out, all of which are of clinical relevance. […] In Table 3 the results for a panel of Gram negative bacteria are shown, and in Table 4 for a panel of […] bacteria. In these tables the detected gene/s responsible for the resistance against antibiotics for each strain, are included.
(§3) Antimicrobial activity was analyzed by means of the determination of the MIC (minimum inhibitory concentration) by the microdilution technique. The technique was carried out in the standard fashion according to (CLSI M07-A9 Vol. 32 No 2. January 2012). The peptide concentration range used was from 0.5 μg/mL to 512 μg/mL in two-fold serial dilutions. The used medium was MH Difco broth supplemented with cations, at a final concentration of Ca^++20-25 mg/L and Mg^++10-12.5 mg/L. The working inoculum used corresponds to a 1/100 dilution of a bacterial suspension equivalent to 0.5 in the Mc Farland scale.

Staphylococcus warneri = test system: Staphylococcus warneri
Protocol: as §1, §2, §3

Staphylococcus cohnii = test system: Staphylococcus cohnii
Protocol: as §1, §2, §3

Klebsiella pneumoniae = test system: Klebsiella pneumoniae
Protocol: as §1, §2, §3

P. aeruginosa = format: cell-based
Protocol: (§4) In vitro sensitivity assay of aerobically growing bacteria, using the disc diffusion method was performed according to the standards in the M2 document of the CLSI (Clinical and Laboratory Standards Institute: Performance Standards for Antimicrobial Disk Susceptibility Tests.) using the non-amidated peptides
(§5) In brief, intermediate solutions (10×) of the antimicrobial non-amidated peptides were prepared by serial dilutions 1:2, 1:4 and 1:8 by two-fold dilutions. Then, one part of the solution of the antimicrobial peptide 10× was added to nine parts of melted bacteriological agar. The antibiotic solution was added for each dilution, in the melted agar and cooled to 45-50° C. in a water bath. Then, the agar-antibiotic mixture was placed in a Petri dish until a 3-4 mm depth was reached. The inoculum is prepared with a turbidity of 0.5 in the McFarland scale (approximately 1-2 10^8 CFU/ml). The final inoculum required for the agar dilution test is 10^4 colony forming units (CFU) per “spot” having 5-8 mm in diameter. The inoculated plates must be incubated upside down at 35° C. for a period of 16-20 hs. MIC was recorded as the value of the lower dilution completely inhibiting bacterial development, without considering the development of a single colony or a slight film caused by the inoculum deposit. The final point in these cases will correspond to the concentration at which there is more than 80% reduction in growth as compared with the control.

S. warnerii = format: cell-based
Protocol: as §4, §5

S. cohnii = format: cell-based
Protocol: as §4, §5

E. coli = format: cell-based
Protocol: as §4, §5

S. aureus = format: cell-based
Protocol: as §4, §5

K. pneumoniae = format: cell-based
Protocol: as §4, §5

Pseudomonas aeruginosa = assay: MIC by broth microdilution; format: cell-based
Protocol: as §1, §2, §3

MIC (Escherichia coli): >256 µg/mL | MIC (Staphylococcus warneri): >256 µg/mL | MIC (Staphylococcus cohnii): >256 µg/mL | MIC (Klebsiella pneumoniae): >256 µg/mL | MIC in agar dilution (P. aeruginosa): >128 µg/mL | MIC in agar dilution (S. warnerii): >128 µg/mL | MIC in agar dilution (S. cohnii): >128 µg/mL | MIC in agar dilution (E. coli): >128 µg/mL | MIC in agar dilution (S. aureus): >128 µg/mL | MIC in agar dilution (K. pneumoniae): >128 µg/mL | MIC (Pseudomonas aeruginosa): >256 µg/mL
SMILES: CC[C@H](C)[C@H](NC(=O)[C@H](CCCCN)NC(=O)[C@H](CCCNC(=N)N)NC(=O)[C@H](CC(N)=O)NC(=O)CNC(=O)[C@H](CCCNC(=N)N)NC(=O)[C@H](Cc1ccccc1)NC(=O)[C@@H](NC(=O)[C@H](CS)NC(=O)[C@H](Cc1c[nH]cn1)NC(=O)[C@H](CC(C)C)NC(=O)[C@@H]1CCCN1C(=O)[C@H](CCC(N)=O)NC(=O)[C@@H]1CCCN1C(=O)[C@@H](NC(=O)[C@H](CC(N)=O)NC(=O)[C@@H]1CCCN1C(=O)[C@H](CC(C)C)NC(=O)CNC(=O)[C@@H](NC(=O)CNC(=O)[C@H](CO)NC(=O)[C@H](CC(C)C)NC(=O)[C@H](CC(C)C)NC(=O)[C@H](CC(=O)O)NC(=O)[C@H](CS)NC(=O)[C@@H](NC(=O)[C@@H](N)[C@@H](C)O)[C@@H](C)O)C(C)C)C(C)C)C(C)C)C(=O)N[C@@H](CCCCN)C(=O)N[C@@H](Cc1c[nH]c2ccccc12)C(N)=O [peptide 4] (H-TTCDLLSGVGLPNVPQPLHCVFRGNRKIKW-NH2)
